Measurements from patent EP4667466A1, “PROTAC DEGRADERS OF MLLT1 AND/OR MLLT3” (priority 2024, dated 2025).

How the values were obtained:
[1] = molecular target: T1, MLLT1 (Homo sapiens, UniProt Q03111); experiment: MLLT1 degradation assay (JESS automated chemiluminescent detection) in MV4-11 cells; format: cell-based; details: 24h, with respect to DMSO control
T1 construct: endogenous in cells; host or cells: MV4-11 (ATCC CRL-9591)
T1 sequence (Q03111 1-559): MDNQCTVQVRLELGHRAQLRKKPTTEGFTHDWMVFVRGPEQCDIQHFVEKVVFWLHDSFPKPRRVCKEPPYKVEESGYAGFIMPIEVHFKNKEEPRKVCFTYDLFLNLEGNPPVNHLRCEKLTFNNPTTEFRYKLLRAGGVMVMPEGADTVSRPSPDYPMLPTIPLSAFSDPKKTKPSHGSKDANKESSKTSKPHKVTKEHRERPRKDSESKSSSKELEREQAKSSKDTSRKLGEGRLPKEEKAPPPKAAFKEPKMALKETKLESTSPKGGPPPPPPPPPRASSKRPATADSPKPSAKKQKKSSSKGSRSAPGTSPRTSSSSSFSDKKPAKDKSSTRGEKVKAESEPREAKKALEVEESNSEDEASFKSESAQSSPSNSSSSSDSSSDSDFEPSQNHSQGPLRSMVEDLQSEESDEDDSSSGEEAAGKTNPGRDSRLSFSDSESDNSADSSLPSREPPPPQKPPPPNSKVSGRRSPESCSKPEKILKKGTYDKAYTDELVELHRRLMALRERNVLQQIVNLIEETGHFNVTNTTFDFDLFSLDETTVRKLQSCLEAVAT
Procedure, shortened: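 MV4-11 cells were treated with 1000, 100 or 10 nM compound (0.1% DMSO) for 24 h at 37 °C. Lysates (4 µg protein) were probed for MLLT1 and GAPDH by JESS capillary chemiluminescence. Degradation was calculated from band peak areas versus DMSO control and binned into categories A–D.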

[2] = test system: MV4-11 cells; experiment: MV4-11 cellular proliferation assay, Assay Format A (CellTiter-Glo, 120 hours); format: cell-based; details: Homo sapiens, Assay method A, read-out: MV4-11 antiproliferative IC50
Experimental: An MV4-11 proliferation assay was used to test the ability of compounds to reduce cell viability.
After 120 hours of treatment, cells were incubated for 10 min at RT with the CellTiter-Glo (CTG) reagent (G7571, Promega). Measurement of the luminescence signal was performed on a microplate reader (Ensight, PerkinElmer). CTG reagent measures the amount of ATP, which is directly proportional to the number of cells, to determine the number of viable cells in culture.
The data were analysed as follows: Data normalization, N(x) = (x−〈cr〉)/(〈sr〉−〈cr〉) × 100 [formula] where x is the measured raw signal value of a well, (cr) is the median of the measured signal values for the Central Reference (DMSO) wells on a plate, (sr) is the median of the measured signal values for the Scale Reference (reference compound) wells on a plate. Curve fitting, S0 + (Sinf −S0)/(1 + (((AC50)/(10^c)))^n) [formula] where the experimental set-up assumes the Hill parameters in certain ranges: S0 ~ Central Reference (CR) from normalization (= Bottom), Sinf ~ Scale Reference (SR) from normalization (= Top), nHill ~ 1, AC50 ~ within the measured concentration range.

SMILES | inhibition at 0.01 µM [1] [%] | inhibition at 0.1 µM [1] [%] | inhibition at 1 µM [1] [%] | IC50 [2] [nM]
Cc1nn(CCCCNc2cccc3c2C(=O)N(C2CCC(=O)NC2=O)C3=O)c2cc(C(=O)Nc3cc4[nH]c([C@H]5CCCN5C)cc4cn3)ccc12 (stereo partly drawn) [Example 21, 1-(4-((2-(2,6-dioxopiperidin-3-yl)-1,3-dioxoisoindolin-4-yl)amino)butyl)-3-methyl-N-(2-((R)-1-methylpyrrolidin-2-yl)-1H-pyrrolo[3,2-c]pyridin-6-yl)-1H-indazole-6-carboxamide] | ≥ 75 | ≥ 75 | ≥ 75 | 11
Cc1nn(CCOCCNc2cccc3c2C(=O)N(C2CCC(=O)NC2=O)C3=O)c2cc(C(=O)Nc3cc4[nH]c([C@H]5CCCN5C)cc4cn3)ccc12 (stereo partly drawn) [Example 26, 1-(2-(2-((2-(2,6-dioxopiperidin-3-yl)-1,3-dioxoisoindolin-4yl)amino)ethoxy)ethyl)-3-methyl-N-(2-((R)-1-methylpyrrolidin-2-yl)-1H-pyrrolo[3,2-c]pyridin-6-yl)-1H-indazole-6-carboxamide] | – | ≥ 75 | ≥ 75 | 14
Cc1nn(CCCCCCNc2cccc3c2C(=O)N(C2CCC(=O)NC2=O)C3=O)c2cc(C(=O)Nc3cc4[nH]c([C@H]5CCCN5C)cc4cn3)ccc12 (stereo partly drawn) [Example 22, 1-(6-{[2-(2,6-dioxopiperidin-3-yl)-1,3-dioxoisoindol-4-yl]amino}hexyl)-3-methyl-N-{2-[(2R)-1-methylpyrrolidin-2-yl]-1H-pyrrolo[3,2-c]pyridin-6-yl}indazole-6-carboxamide] | ≥ 75 | ≥ 75 | ≥ 75 | 8
Cc1nn(CCOCCOCCNc2cccc3c2C(=O)N(C2CCC(=O)NC2=O)C3=O)c2cc(C(=O)Nc3cc4[nH]c([C@H]5CCCN5C)cc4cn3)ccc12 (stereo partly drawn) [Example 25, 1-(2-(2-(2-((2-(2,6-dioxopiperidin-3-yl)-1,3-dioxoisoindolin-4-yl)amino)ethoxy)ethoxy)ethyl)-3-methyl-N-(2-((R)-1-methylpyrrolidin-2-yl)-1H-pyrrolo[3,2-c]pyridin-6-yl)-1H-indazole-6-carboxamide] | – | ≥ 75 | ≥ 75 | 11
Cc1nn(CCCCCCCCNc2ccc3c(c2)C(=O)N(C2CCC(=O)NC2=O)C3=O)c2cc(C(=O)Nc3cc4[nH]c([C@@H]5CCCN5C)cc4cn3)ccc12 (stereo partly drawn) [Example 15, 1-(8-{[2-(2,6-dioxopiperidin-3-yl)-1,3-dioxoisoindol-5-yl]amino}octyl)-3-methyl-N-{2-[(2S)-1-methylpyrrolidin-2-yl]-1H-pyrrolo[3,2-c]pyridin-6-yl}indazole-6-carboxamide] | < 25 | ≥ 75 | ≥ 75 | 12

Further lines, results first:

inhibition at 0.01 µM [1] [%] | inhibition at 0.1 µM [1] [%] | inhibition at 1 µM [1] [%] | IC50 [2] [nM] | SMILES
≥ 75 | ≥ 75 | ≥ 75 | 6 | Cc1nn(CCCCCC#Cc2cccc3c2CN(C2CCC(=O)NC2=O)C3=O)c2cc(C(=O)Nc3cc4[nH]c([C@H]5CCCN5C)cc4cn3)ccc12 (stereo partly drawn) [Example 30, 1-(7-(2-(2,6-dioxopiperidin-3-yl)-1-oxoisoindolin-4-yl)hept-6-yn-1-yl)-3-methyl-N-(2-((R)-1-methylpyrrolidin-2-yl)-1H-pyrrolo [3,2-c]pyridin-6-yl)-1H-indazole-6-carboxamide]
≥ 75 | ≥ 75 | ≥ 75 | 4 | Cc1nn(CCCCCCCC#Cc2cccc3c2CN(C2CCC(=O)NC2=O)C3=O)c2cc(C(=O)Nc3cc4[nH]c([C@H]5CCCN5C)cc4cn3)ccc12 (mixture of isomers) [Example 1, 1-(9-(2-(2,6-dioxopiperidin-3-yl)-1-oxoisoindolin-4-yl)non-8-yn-1-yl)-3-methyl-N-(2-((R)-1-methylpyrrolidin-2-yl)-1H-pyrrolo[3,2-c]pyridin-6-yl)-1H-indazole-6-carboxamide]
≥ 75 | ≥ 75 | ≥ 75 | 9 | Cc1nn(CCCCCCCCNc2cccc3c2CN(C2CCC(=O)NC2=O)C3=O)c2cc(C(=O)Nc3cc4[nH]c([C@H]5CCCN5C)cc4cn3)ccc12 (stereo partly drawn) [Example 16, 1-(8-{[2-(2,6-dioxopiperidin-3-yl)-1-oxo-3H-isoindol-4-yl]amino}octyl)-3-methyl-N-{2-[(2R)-1-methylpyrrolidin-2-yl]-1H-pyrrolo[3,2-c]pyridin-6-yl}indazole-6-carboxamide]
50 to 75 | ≥ 75 | 50 to 75 | 15 | Cc1nn(CCCC#Cc2cccc3c2CN(C2CCC(=O)NC2=O)C3=O)c2cc(C(=O)Nc3cc4[nH]c([C@H]5CCCN5C)cc4cn3)ccc12 (stereo partly drawn) [Example 32, 1-(5-(2-(2,6-dioxopiperidin-3-yl)-1-oxoisoindolin-4-yl)pent-4-yn-1-yl)-3-methyl-N-(2-((R)-1-methylpyrrolidin-2-yl)-1H-pyrrolo[3,2-c]pyridin-6-yl)-1H-indazole-6-carboxamide]
≥ 75 | ≥ 75 | 50 to 75 | 7 | Cc1nn(CCCCC#Cc2cccc3c2CN(C2CCC(=O)NC2=O)C3=O)c2cc(C(=O)Nc3cc4[nH]c([C@H]5CCCN5C)cc4cn3)ccc12 (stereo partly drawn) [Example 46, 1-(6-(2-(2,6-dioxopiperidin-3-yl)-1-oxoisoindolin-4-yl)hex-5-yn-1-yl)-3-methyl-N-(2-((R)-1-methylpyrrolidin-2-yl)-1H-pyrrolo[3.2-c]pyridin-6-yl)-1H-indazole-6-carboxamide]
50 to 75 | ≥ 75 | ≥ 75 | 5 | [2H]C([2H])([2H])N1CCC[C@@H]1c1cc2cnc(NC(=O)c3ccc4c(C)nn(CCCCCCCC#Cc5cccc6c5CN(C5CCC(=O)NC5=O)C6=O)c4c3)cc2[nH]1 (stereo partly drawn) [Example 44, 1-(9-(2-(2,6-dioxopiperidin-3-yl)-1-oxoisoindolin-4-yl)non-8-yn-1-yl)-3-methyl-N-(2-((R)-1-(methyl-d3)pyrrolidin-2-yl)-1H-pyrrolo[3,2-c]pyridin-6-yl)-1H-indazole-6-carboxamide]
≥ 75 | ≥ 75 | ≥ 75 | 10 | Cc1nn(CCCCCCC#Cc2cccc3c2CN(C2CCC(=O)NC2=O)C3=O)c2cc(C(=O)Nc3cc4[nH]c([C@H]5CCCN5C)cc4cn3)ccc12 (stereo partly drawn) [Example 45, 1-(8-(2-(2,6-dioxopiperidin-3-yl)-1-oxoisoindolin-4-yl)oct-7-yn-1-yl)-3-methyl-N-(2-((R)-1-methylpyrrolidin-2-yl)-1H-pyrrolo[3,2-c]pyridin-6-yl)-1H-indazole-6-carboxamide]
